Measurements from patent publication US20260108442A1, “COMPOUND FOR USE IN PROTECTING SKIN” (TDELTAS LIMITED, priority 2013, published 2026).

Experiments:
[1] = system: Primary human dermal fibroblasts (HDF); test: Live and dead assay (Calcein AM / EthD-III) of human dermal fibroblast growth; format: cell-based; settings: 4 mM in basal medium, after 10 days incubation, FIG. 1
Procedure: Primary human dermal fibroblasts (HDF), with a seeding capacity of 2,500 cells/cm^2, […] (HF) basal medium (TCS Cellworks) or basal medium containing 4 mM of the ketone ester, deltaG. The basal medium was changed daily. Cell viability was determined using a live and dead assay kit, with two colour fluorescence staining of live and dead cells using the probes, Calcein AM and EthD-III.

[2] = system: Human dermal fibroblast cells; test: Cell survival after UVB irradiation, Trypan blue exclusion; format: cell-based; settings: viable cells at 48 hours after irradiation, FIG. 2
Procedure: Human dermal fibroblast cells were cultured in basal medium in 6-well plates at 50,000 cells per well. The cells were incubated in medium alone or with added 4 mM R-3-hydroxybutyl-(R)-3-hydroxybutyrate. After reaching 80-90% confluence, cells were washed with phosphate-buffered saline and the medium was replaced with a thin layer of Hanks buffer, (a balanced salt solution designed to use with cells in non-CO2 atmospheric conditions). Cells were irradiated at doses of 25, 50, 100, 150, 300 and 600 mJ/cm^2 using a portable UVB source (302 nm) with a fluence rate of 0.9 mW/cm^2 at cell level. UV irradiation was performed in a fume hood to maintain sterility. After irradiation, cells were washed and incubated in medium alone or with added 4 mM R-3-hydroxybutyl-(R)-3-hydroxybutyrate (as they had been before irradiation). Another group of irradiated cells, which had initially been grown in basal medium without deltaG, was incubated with added 4 mM R-3-hydroxybutyl-(R)-3-hydroxybutyrate. Cell survival was determined by counting viable cells using Trypan blue exclusion at 48 hours after irradiation.

hands of the user (skin) = test: Neat topical application to dry hands, visual inspection; format: in vivo; settings: used neat, massaged into dry hands, inspected after 30 minutes
Description: D-betahydroxybutyrate butanediol monoester was used neat in this experiment. The hands of the user were visually inspected prior to application of the D-betahydroxybutyrate butanediol monoester. […] D-betahydroxybutyrate butanediol monoester was applied to the hands and massaged in to the skin thoroughly.

SMILES: C[C@@H](O)CCOC(=O)C[C@@H](C)O [R-3-hydroxybutyl-(R)-3-hydroxybutyrate]
- dead cells ([1]; compared with control): fewer dead cells
- live cells ([1]; vs. 75% in control, P<0.05): 89%
- protection from UVB radiation (cell survival) ([2]; 4 mM both before and after radiation exposure, compared with after radiation only): conferred no further benefit
- protection from UVB radiation (cell survival) ([2]; 4 mM given to the cells after radiation, UVB 302 nm, doses between 150 and 600 mJ/cm^2, p<0.05): protected human dermal fibroblasts from UVB radiation
- visual inspection of hands (dryness, wrinkling, feel) (hands of the user (skin)): visually noticeable improvement in properties including less dryness, less wrinkling and an improved feel
